According to the supplement of paper PMC13207355:

Columns and labels:
Conditions in all cases: exposure time: 72 h
[1] = test system: E13 (patient-derived glioblastoma stem cells of classical subtype); assay: surviving fraction (nuclei count normalised to DMSO); higher = more cells surviving (less toxic)
[2] = test system: E21 (patient-derived glioblastoma stem cells of mesenchymal subtype); assay: as above
[3] = test system: E28 (patient-derived glioblastoma stem cells of classical subtype); assay: as above
[4] = test system: E31 (patient-derived glioblastoma stem cells of proneural subtype); assay: as above
[5] = test system: E34 (patient-derived glioblastoma stem cells of proneural subtype); assay: as above
[6] = test system: E57 (patient-derived glioblastoma stem cells of mesenchymal subtype); assay: as above
[7] = test system: FT3469 (normal neural stem cell line); assay: as above
[8] = test system: E13; assay: phenotypic distance (Euclidean, principal components) from DMSO controls (arbitrary units); higher = stronger morphological change
[9] = test system: E21; assay: as above
[10] = test system: E28; assay: as above
[11] = test system: E31; assay: as above
[12] = test system: E34; assay: as above
[13] = test system: E57; assay: as above
[14] = test system: FT3469; assay: as above
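For phenotypic distance (Euclidean, principal components) from DMSO controls in this document: cell Painting imaging in 384-well plates, CellProfiler features reduced to at least 20 principal components, Euclidean distance versus same-plate DMSO vehicle wells (0.1% v/v), median over six images per well.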
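For surviving fraction (nuclei count normalised to DMSO) in this document: nuclei counted by high-content imaging of Hoechst-stained cells in laminin-coated 384-well plates, relative to 0.1% DMSO vehicle wells, with staurosporine as cell-death control.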

CC1(C(=O)O)C2CCC(O2)C1(C)C(=O)O (stereo not drawn) [Cantharidic Acid]
Conditions	phenotypic distance	surviving fraction
[1], 4.1 nM	–	0.839
[1], 12.3 nM	–	0.973
[1], 37 nM	–	0.995
[1], 111.1 nM	–	1.11
[1], 333.3 nM	–	0.921
[1], 1000 nM	–	1.02
[1], 3000 nM	–	0.939
[2], 4.1 nM	–	0.955
[2], 12.3 nM	–	0.853
[2], 37 nM	–	1.11
[2], 111.1 nM	–	1
[2], 333.3 nM	–	1.03
[2], 1000 nM	–	0.954
[2], 3000 nM	–	0.922
[3], 4.1 nM	–	0.901
[3], 12.3 nM	–	1.05
[3], 37 nM	–	0.971
[3], 111.1 nM	–	1.07
[3], 333.3 nM	–	1.11
[3], 1000 nM	–	1.15
[3], 3000 nM	–	0.771
[4], 4.1 nM	–	1.07
[4], 12.3 nM	–	1
[4], 37 nM	–	1.16
[4], 111.1 nM	–	1.05
[4], 333.3 nM	–	1.04
[4], 1000 nM	–	1.08
[4], 3000 nM	–	0.683
[5], 4.1 nM	–	0.916
[5], 12.3 nM	–	1.08
[5], 37 nM	–	0.914
[5], 111.1 nM	–	1.1
[5], 333.3 nM	–	1.22
[5], 1000 nM	–	1.06
[5], 3000 nM	–	0.832
[6], 4.1 nM	–	0.985
[6], 12.3 nM	–	0.996
[6], 37 nM	–	0.944
[6], 111.1 nM	–	1.03
[6], 333.3 nM	–	1.04
[6], 1000 nM	–	1.03
[6], 3000 nM	–	0.947
[7], 4.1 nM	–	0.889
[7], 12.3 nM	–	0.855
[7], 37 nM	–	1.07
[7], 111.1 nM	–	1.03
[7], 333.3 nM	–	1
[7], 1000 nM	–	1.06
[7], 3000 nM	–	0.777
[8], 4.1 nM	0.746	–
[8], 12.3 nM	0.673	–
[8], 37 nM	0.774	–
[8], 111.1 nM	0.872	–
[8], 333.3 nM	0.83	–
[8], 1000 nM	0.671	–
[8], 3000 nM	2.26	–
[9], 4.1 nM	0.625	–
[9], 12.3 nM	0.711	–
[9], 37 nM	1.21	–
[9], 111.1 nM	0.773	–
[9], 333.3 nM	0.585	–
[9], 1000 nM	0.482	–
[9], 3000 nM	2.17	–
[10], 4.1 nM	0.917	–
[10], 12.3 nM	0.654	–
[10], 37 nM	0.463	–
[10], 111.1 nM	0.528	–
[10], 333.3 nM	0.599	–
[10], 1000 nM	0.909	–
[10], 3000 nM	2.54	–
[11], 4.1 nM	1.05	–
[11], 12.3 nM	0.816	–
[11], 37 nM	1.07	–
[11], 111.1 nM	1.09	–
[11], 333.3 nM	0.68	–
[11], 1000 nM	0.624	–
[11], 3000 nM	1.67	–
[12], 4.1 nM	1.38	–
[12], 12.3 nM	1.36	–
[12], 37 nM	1.46	–
[12], 111.1 nM	1.49	–
[12], 333.3 nM	1.07	–
[12], 1000 nM	0.864	–
[12], 3000 nM	3.29	–
[13], 4.1 nM	0.632	–
[13], 12.3 nM	0.322	–
[13], 37 nM	0.414	–
[13], 111.1 nM	0.564	–
[13], 333.3 nM	0.544	–
[13], 1000 nM	0.751	–
[13], 3000 nM	1.72	–
[14], 4.1 nM	1.06	–
[14], 12.3 nM	0.717	–
[14], 37 nM	0.644	–
[14], 111.1 nM	0.683	–
[14], 333.3 nM	0.991	–
[14], 1000 nM	0.653	–
[14], 3000 nM	2.25	–
